Test results: ChEMBL document CHEMBL1201862, “PubChem BioAssay data set” (2004)
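Step 1: Grow cells in 96-well plates. Step 2: Expose to compound for 48 hours at 5 concentrations. Step 3: Interpolate endpoints linearly; if unreached, use highest concentration. Abbreviation: GI50, concentration required for 50% inhibition of growth.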 The source made the active and inactive calls. Rule as the data show it: active = GI50 up to about 1.1 µM and inactive = higher.

Assays:
Assay in all cases: DTP human tumour cell line panel, 48 h
IGROV-1 = test system: IGROV-1
NCI-H522 = test system: NCI-H522
Malme-3M = test system: Malme-3M
UACC-257 = test system: UACC-257
T47D = test system: T47D
SK-OV-3 = test system: SK-OV-3
RPMI-8226 = test system: RPMI-8226
SNB-75 = test system: SNB-75
K562 = test system: K562
HCC 2998 = test system: HCC 2998
LOX IMVI = test system: LOX IMVI
CCRF-CEM = test system: CCRF-CEM
U-251 = test system: U-251
BT-549 = test system: BT-549
NCI-H226 = test system: NCI-H226
SK-MEL-28 = test system: SK-MEL-28
786-0 = test system: 786-0
SNB-19 = test system: SNB-19
HOP-92 = test system: HOP-92
SN12C = test system: SN12C

Row | SMILES | GI50 (IGROV-1) | GI50 (NCI-H522) | GI50 (Malme-3M) | GI50 (UACC-257) | GI50 (T47D) | GI50 (SK-OV-3) | GI50 (RPMI-8226) | GI50 (SNB-75) | GI50 (K562) | GI50 (HCC 2998) | GI50 (LOX IMVI) | GI50 (CCRF-CEM) | GI50 (U-251) | GI50 (BT-549) | GI50 (NCI-H226) | GI50 (SK-MEL-28) | GI50 (786-0) | GI50 (SNB-19) | GI50 (HOP-92) | GI50 (SN12C)
1 | COC(=O)c1ccc2c(c1)C(NC(C)=O)CCc1cc(OC)c(OC)c(OC)c1-2 (stereo not given) | 0.0163 µM (active) | 0.018 µM (active) | 0.015 µM (active) | 0.53 µM (active) | > 100 µM (inactive) | 0.0188 µM (active) | 0.0151 µM (active) | 0.0129 µM (active) | 0.0128 µM (active) | 0.0327 µM (active) | 0.0149 µM (active) | 0.0133 µM (active) | < 0.0117 µM (active) | 0.104 µM (active) | 0.0424 µM (active) | 0.0265 µM (active) | 0.015 µM (active) | 0.0183 µM (active) | 0.0391 µM (active) | 0.0223 µM (active)
2 | CCOC(=O)c1ccc(-c2cccs2)[nH]1 | 83.2 µM (inactive) | 32.7 µM (inactive) | 63.4 µM (inactive) | 91.6 µM (inactive) | 31.6 µM (inactive) | > 62.7 µM (inactive) | > 70.8 µM (inactive) | > 100 µM (inactive) | 71.3 µM (inactive) | > 100 µM (inactive) | > 100 µM (inactive) | > 81.3 µM (inactive) | > 76.4 µM (inactive) | > 63.1 µM (inactive) | > 100 µM (inactive) | > 80.5 µM (inactive) | > 100 µM (inactive) | 98.2 µM (inactive) | 12.1 µM (inactive) | > 100 µM (inactive)
3 | COc1ccc2nc3cc([N+](=O)[O-])ccc3c(NNc3ccccc3)c2c1 | 2.93 µM (inactive) | 20.7 µM (inactive) | 20.3 µM (inactive) | 1.19 µM (inactive) | 26.9 µM (inactive) | > 73.6 µM (inactive) | 17.5 µM (inactive) | 49.1 µM (inactive) | 5.69 µM (inactive) | 23.2 µM (inactive) | 29 µM (inactive) | 23.2 µM (inactive) | 18.7 µM (inactive) | 28.5 µM (inactive) | 0.596 µM (active) | 77.6 µM (inactive) | 18.4 µM (inactive) | 56.4 µM (inactive) | 19.8 µM (inactive) | 30.2 µM (inactive)
4 | CC(=O)OC1CC(n2cc(F)c(=O)[nH]c2=O)OC1CO (stereo not given) | > 61.7 µM (inactive) | 2.15 µM (inactive) | 18 µM (inactive) | 49.1 µM (inactive) | 12.1 µM (inactive) | 61.1 µM (inactive) | 21.9 µM (inactive) | 3.98 µM (inactive) | 15.1 µM (inactive) | < 0.0279 µM (active) | 0.324 µM (active) | 0.117 µM (active) | 5.69 µM (inactive) | 5.5 µM (inactive) | 49.1 µM (inactive) | 15.6 µM (inactive) | 0.494 µM (active) | 2.72 µM (inactive) | 1.49 µM (inactive) | 1.23 µM (inactive)
5 | CCCCCC/C=C\CCCCCCCCCC1=CC(=O)C=C(OC)C1=O [IRISQUINONE A] | 2.23 µM (inactive) | 2 µM (inactive) | 12.3 µM (inactive) | 3.28 µM (inactive) | 2.23 µM (inactive) | 4.36 µM (inactive) | 2.21 µM (inactive) | 2.43 µM (inactive) | 0.753 µM (active) | 8.24 µM (inactive) | 4.06 µM (inactive) | 1.57 µM (inactive) | 0.713 µM (active) | 2.16 µM (inactive) | 2.52 µM (inactive) | 11.5 µM (inactive) | 4.68 µM (inactive) | 2.89 µM (inactive) | 2.52 µM (inactive) | 3.03 µM (inactive)
6 | C=C(C)C12CC(COC(=O)c3ccccc3)C34OC5(OC1C3C1OC1(CO)C(O)C1(O)C(OC(=O)c3ccccc3)C(C)C(C(C)CCCCCCC5O)C14)O2 (stereo not given) | > 72.8 µM (inactive) | 46.5 µM (inactive) | 25.2 µM (inactive) | 49.3 µM (inactive) | > 87.9 µM (inactive) | > 100 µM (inactive) | 18.8 µM (inactive) | > 82.8 µM (inactive) | < 0.01 µM (active) | < 0.01 µM (active) | 66.5 µM (inactive) | 26.4 µM (inactive) | 32.6 µM (inactive) | > 100 µM (inactive) | 40.7 µM (inactive) | > 49.5 µM (inactive) | > 61.8 µM (inactive) | > 100 µM (inactive) | > 100 µM (inactive) | 37.8 µM (inactive)
7 | OC1C2[C@@H](O)CCCN2C[C@@H](O)[C@H]1O (stereo not given in full) | > 100 µM (inactive) | 71.1 µM (inactive) | > 100 µM (inactive) | > 100 µM (inactive) | > 100 µM (inactive) | > 100 µM (inactive) | > 100 µM (inactive) | > 100 µM (inactive) | > 100 µM (inactive) | > 100 µM (inactive) | > 100 µM (inactive) | > 100 µM (inactive) | > 100 µM (inactive) | > 100 µM (inactive) | > 100 µM (inactive) | > 100 µM (inactive) | > 100 µM (inactive) | > 100 µM (inactive) | > 100 µM (inactive) | > 100 µM (inactive)
8 | O=C(Nc1sccc1S(=O)(=O)c1ccc(Cl)cc1)c1ccc(Cl)cc1 | > 100 µM (inactive) | > 100 µM (inactive) | 50.6 µM (inactive) | > 100 µM (inactive) | > 100 µM (inactive) | 52.6 µM (inactive) | > 100 µM (inactive) | 31.8 µM (inactive) | > 100 µM (inactive) | > 100 µM (inactive) | > 100 µM (inactive) | > 100 µM (inactive) | 31 µM (inactive) | > 100 µM (inactive) | > 100 µM (inactive) | > 100 µM (inactive) | 52.7 µM (inactive) | 44.2 µM (inactive) | 73.1 µM (inactive) | > 100 µM (inactive)
9 | COc1cc2c3c(cc(Cl)nc3c1OC)C(O)(CC(C)=O)C(=O)N2 (stereo not given) | 19.1 µM (inactive) | 8.97 µM (inactive) | 15.9 µM (inactive) | 8 µM (inactive) | 3.2 µM (inactive) | > 47.1 µM (inactive) | 23.8 µM (inactive) | 38.6 µM (inactive) | 18.5 µM (inactive) | > 44 µM (inactive) | 16.3 µM (inactive) | 9.18 µM (inactive) | 57.8 µM (inactive) | 16.8 µM (inactive) | > 42.3 µM (inactive) | > 45.4 µM (inactive) | 17.1 µM (inactive) | > 40.3 µM (inactive) | 19.1 µM (inactive) | 21.7 µM (inactive)
10 | NC1=CN(CCCO)C2=N/C(=C\c3ccco3)C(=O)N12 | > 100 µM (inactive) | > 100 µM (inactive) | > 100 µM (inactive) | 48.9 µM (inactive) | > 100 µM (inactive) | > 100 µM (inactive) | > 100 µM (inactive) | > 100 µM (inactive) | > 100 µM (inactive) | > 100 µM (inactive) | > 100 µM (inactive) | > 100 µM (inactive) | > 100 µM (inactive) | > 100 µM (inactive) | > 100 µM (inactive) | > 100 µM (inactive) | > 100 µM (inactive) | > 100 µM (inactive) | > 100 µM (inactive) | > 100 µM (inactive)
11 | CC(=O)c1c(O)c(C)c(O)c(Cc2c(O)c3c(c(C(=O)/C=C/c4ccccc4)c2O)OC(C)(C)C=C3)c1O [ROTTLERIN] | 3.1 µM (inactive) | 1.95 µM (inactive) | 2.84 µM (inactive) | 2.21 µM (inactive) | 1.85 µM (inactive) | 4.04 µM (inactive) | 1.79 µM (inactive) | 1.27 µM (inactive) | 1.07 µM (active) | 2.23 µM (inactive) | 2.86 µM (inactive) | 2.99 µM (inactive) | 2.31 µM (inactive) | 2.51 µM (inactive) | 3.45 µM (inactive) | 2.86 µM (inactive) | 2.85 µM (inactive) | 2.34 µM (inactive) | 1.62 µM (inactive) | 2.21 µM (inactive)
12 | Cc1nc2c(o1)C(=O)c1ccccc1/C2=N/c1ccc(N2CCOCC2)cc1 | 8.71 µM (inactive) | 2.48 µM (inactive) | 1.74 µM (inactive) | 1.94 µM (inactive) | 3.01 µM (inactive) | 37.8 µM (inactive) | 3.38 µM (inactive) | 2.46 µM (inactive) | 3.28 µM (inactive) | 34.1 µM (inactive) | 2.01 µM (inactive) | 4.57 µM (inactive) | 3.52 µM (inactive) | 2.12 µM (inactive) | 20.5 µM (inactive) | 3.15 µM (inactive) | 22.6 µM (inactive) | 8.47 µM (inactive) | 10.7 µM (inactive) | 3.18 µM (inactive)
13 | C=C1C(=O)O[C@@H]2C[C@@H]3[C@]4(CC[C@]5(C)[C@@H]([C@H](C)CC/C=C(\C)C=O)CC[C@@]35C)C[C@]4(CCC(=O)OC)[C@H]12 | 2.13 µM (inactive) | 3.09 µM (inactive) | 1.59 µM (inactive) | 0.454 µM (active) | 1.9 µM (inactive) | 3.52 µM (inactive) | 0.295 µM (active) | 2.4 µM (inactive) | 0.845 µM (active) | 2.14 µM (inactive) | 1.28 µM (inactive) | 0.222 µM (active) | 1.38 µM (inactive) | 2.03 µM (inactive) | 3.4 µM (inactive) | 2 µM (inactive) | 1.71 µM (inactive) | 1.97 µM (inactive) | 1.94 µM (inactive) | 1.9 µM (inactive)
14 | COc1ccc(C(C)c2cc3c(cc2OC)OCO3)cc1 (stereo not given) | 0.104 µM (active) | 0.0455 µM (active) | 0.0951 µM (active) | 7.38 µM (inactive) | 2.08 µM (inactive) | 0.2 µM (active) | 0.122 µM (active) | 0.06 µM (active) | 0.0389 µM (active) | 0.193 µM (active) | 0.205 µM (active) | 0.131 µM (active) | 0.229 µM (active) | 51.8 µM (inactive) | 0.416 µM (active) | 2.33 µM (inactive) | 0.098 µM (active) | 2.61 µM (inactive) | 1.45 µM (inactive) | 0.378 µM (active)
